Data as given in PMC9607246 (Pharmaceutics, 2022).
≈ marks a conversion by molar mass, not a printed value. Where two headings read alike, the source gives them in different places.

Tests used:
[1] = tested on: Pathogenic micro-organism (S. aureus, S. epidermidis, S. hominis, E. fecalis, S. sacrophyticus, S. lugdunensis); assay type: cell-based; conditions: e-test; median (IQR) of pathogens of the 46 patients (36/46 identified); mg/L
Protocol: Demographic (age, body weight and height), treatment (dose and co-administered medications) and clinical data (microbiological data, analytical and disease covariates) were collected at patient enrolment. Serum creatinine and serum albumin were measured on the day (if not available, the nearest day) of measurement of the drug concentration.

[2] = tested on: human plasma proteins
Excerpt: (§1) This model assumes that Cbound is directly proportional to Cfree with no saturable mechanism. • Non-linear binding model with single site binding [38, 39]: (2) Ctotal=Cfree+Bmax·Cfree/(KD+Cfree) where Bmax (mg/L) represents the maximal binding capacity and KD (mg/L) is the equilibrium dissociation constant. • Non-linear binding model with multiple site binding [38, 40, 41] (3) Ctotal=Cfree+∑^ Bmax,i·Cfree/(KD,i+Cfree) where Bmax,i and KD,i represent the binding-dissociation parameters of the i th binding site of plasma proteins.

[3] = tested on: Staphylococcus aureus; conditions: total AUC, MIC equal to 1 mg/L, cited from earlier work
[4] = tested on: creatine phosphokinase elevation; conditions: in vivo; cited from earlier work
Protocol: The probability of Cmin ≥24.3 mg/L at 24 h was calculated for each scenario.

[5] = excretion primarily by the kidneys; cited from earlier work
[6] = tested on: plasma proteins (albumin and α-glycoprotein); conditions: cited from earlier work
[7] = Population pharmacokinetic model of daptomycin in patients with normal and impaired renal function (NONMEM)
Protocol: A prospective multi-center study in patients admitted to the General University Hospital of Castellón (Castellón, Spain) and the Arnau de Vilanova Hospital of Valencia (Valencia, Spain) was conducted. […] The exclusion criteria were patients with renal replacement therapy.
Five serial blood samples were collected from a peripheral vein from day 4 (steady state) at the pre-dose, 0.5, 1–2, 4–10 h after the infusion ended and before the next dose.
Precision and accuracy were assessed by performing replicate analysis of quality control samples against calibration standards. Intra- and inter-assay coefficients of the variation were always <10%.
All data analyses were performed based on the population approach with the software NONMEM® (Version 7.4; Icon Inc, PA, USA). The population PK parameters were estimated using the Stochastic Approximation of the Expectation Maximization and the Importance Sampling Estimation method. The Perl-Speaks-NONMEM program (version 4.8.1, Department of Pharmaceutical Biosciences, Uppsala University, Sweden) [33] and Pirana software (version 2.9.6, Pirana Software & Consulting BV) were used for model development and evaluation. Data processing and graphical analysis were conducted using R (version 4.0.0, http://cran.r-project.org, accessed on 14 April 2020) and R-Studio (version v2021.09.0+354).
as §1
Inter-individual variability (IIV) associated with the PK model parameters was modeled exponentially, and the residual unexplained variability (RUV) was explored using the additive error model on the logarithmic scale. The significance of the non-diagonal elements of the Ω variance-covariance matrix was evaluated.
Once the base model was selected, a graphical exploration of the correlations between the PK parameters (when eta-shrinkage was less than 35%) [42] and covariates was performed. The continuous covariate included age, height, body weight, serum creatinine, creatinine clearance, and albumin. The categorical covariates were gender and statin co-administration. A numerical evaluation of the parameter-covariate relationship was performed manually in a univariate testing.
The model selection was based on the physiological and pharmacological rationale with the principle of parsimony [43]. A decrease in 3.84 points of the objective function value (OFV) provided by NONMEM® between two nested models differing in one parameter was considered significant at the 5% level, together with the visual inspection of the goodness of fit (GOF) [44] and normalized prediction distribution error (NPDE) plots [45].
A model evaluation [46, 47] was performed through prediction-corrected visual predictive checks (pc-VPC), [48] and a non-parametric bootstrap (n = 1000) was conducted to assess the statistical significance of the final parameter estimates.

[8] = non-parametric bootstrap n = 1000, median
[9] = population estimate, final model, unbound daptomycin, 46 patients

CCCCCCCCCC(=O)N[C@@H](Cc1c[nH]c2ccccc12)C(=O)N[C@H](CC(N)=O)C(=O)N[C@@H](CC(=O)O)C(=O)N[C@@H]1C(=O)NCC(=O)N[C@@H](CCCN)C(=O)N[C@@H](CC(=O)O)C(=O)N[C@H](C)C(=O)N[C@@H](CC(=O)O)C(=O)NCC(=O)N[C@H](CO)C(=O)N[C@@H]([C@H](C)CC(=O)O)C(=O)N[C@@H](CC(=O)c2ccccc2N)C(=O)O[C@@H]1C [daptomycin]
MIC micro-organism [1]: 0.5 (0.25, 0.5)
Bmax (maximal binding capacity) ([2]; in vivo): 160 mg/L
Bmax, bootstrap median ([2]; in vivo): 157 mg/L
KD, bootstrap median [2, 8]: 3.61 µg/mL (≈ 2.23 µM)
KD (equilibrium dissociation constant) ([2]; population estimate, single-site non-linear binding model, estimated from total concentrations, no free concentrations measured): 3.56 µg/mL (≈ 2.2 µM)
AUC with bactericidal effect ([3]; ref 19): 761 mg·h/L
AUC with bacteriostatic effect ([3]; ref 19): 465 mg·h/L
AUC with bactericidal effect ([3]; ref 24, 51, 52): 666 mg·h/L
trough level (Cmin) associated with a 50% probability of creatine phosphokinase elevation [4]: ≥ 24300 ng/mL
eliminated in urine [5]: 54–78%
free fraction [6]: around 10%
reversibly bound to albumin and α-glycoprotein [6]: 90%
CL, bootstrap median [7, 8]: 7.01 L/h
Q, bootstrap median [7, 8]: 1.93 L/h
V1, bootstrap median [7, 8]: 0.97 L
Q (intercompartmental clearance) [7, 9]: 1.96 L/h
V1 (apparent volume of distribution of the unbound central compartment) [7, 9]: 0.95 L
